Data set [1] deals with cancer of patient A. In words: Clinical treatment outcome of patient A. The data set is classed as in vivo, human. As to conditions: previous clinical treatment.
The subject of data set [2] is CTC spheroid derived from blood samples of patient A. Put plainly: Ex vivo drug assay on CTC spheroids of patient A. As to conditions: for diameter and morphology of CTC spheroid: after treatment for 3 days, versus untreated mock group. The data set is classed as cell-based, human. The procedure:
FIGS. 3A-F show the in vitro drug test results of CTC-derived spheroids and clinical-pathological results of the clinical patient. (A) The drug cytotoxicity assay results on the patient-derived CTC-originated spheroid of patient A. Six chemotherapeutic drugs were tested in this assay include oxaliplatin, docetaxel, doxorubicin, irinotecan, mitomycin-C, and 5-FU. (B and D) The image of the morphology of CTC-derived spheroids after drug panel treatment at day 3. Scale bar=20 μm. (C and E) The normalized viability of CTC-derived spheroids with indicated drug panel after 3 days of treatment. (F) The contrast-enhanced CT images before and after cisplatin/gemcitabine treatment of patient B.
In order to validate the ex vivo drug assay results, we tested single or combination therapeutic agents in CTC cultures derived from blood samples of patients. […] A designed ex vivo drug assay with both used and potential candidate drug panel including oxaliplatin, docetaxel, 5-FU, doxorubicin, mitomycin-c, and irinotecan was accomplished with time-dependent and dose-dependent manner (FIG. 3A). With regard to the cell morphology, the diameter of CTC spheroid derived from blood samples of patient A was about 30˜40 μm with an intact spheroid morphology in untreated mock group. […] The results highly match with the clinical treatment outcomes in the treatment resistance on the clinical used drugs. Therefore, doxorubicin was the related promising candidate drug among the un-used drugs (mitomycin-c and irinotecan) for next line treatment (FIG. 3B). Additional ex vivo drug test was also performed on patient B with urothelium cancer.
Spheroid formation on the culture platform of the invention. Collect the cell sample that would be used for cultivation on the culture platform of the invention in suspension medium. Add cell suspension medium into each well. The cells could be cultured under 37° C. incubator with humidified 5% CO2 atmosphere. Exchange half of the culture medium once or twice per week. The cultured spheroids (tumoroids) enables sustain in the culture platform of the invention for more than two weeks depends on the cell density and demand of the spheroid size.

On to `O=c1[nH]cc(F)c(=O)[nH]1` [5-FU, fluorouracil], for which the clinical treatment outcome in data set [1] is “progression disease”. Further, in data set [2], the “diameter and morphology of CTC spheroid” value was “smaller than the mock group and became leakage in appearance”. As for `CC(=O)O[C@@]12CO[C@@H]1C[C@H](O)[C@@]1(C)C(=O)[C@H](O)C3=C(C)[C@@H](OC(=O)[C@H](O)[C@@H](NC(=O)OC(C)(C)C)c4ccccc4)C[C@@](O)([C@@H](OC(=O)c4ccccc4)[C@H]21)C3(C)C` [docetaxel], in data set [1], the clinical treatment outcome is on record as “progression disease”. `COc1cccc2c1C(=O)c1c(O)c3c(c(O)c1C2=O)C[C@@](O)(C(=O)CO)C[C@@H]3O[C@H]1C[C@H](N)[C@H](O)[C@H](C)O1` [doxorubicin]: the spheroid viability entry in data set [2] (CTC spheroids of patient A under drug treatment) is “lower than 4%”. Moreover, the “diameter and morphology of CTC spheroid” value in data set [2] was “obvious broken morphology”.

In the case of `O=C1[O][Pt]2([NH][C@@H]3CCCC[C@H]3[NH]2)[O]C1=O` [oxaliplatin], in data set [1], the clinical treatment outcome is “progression disease”. The “diameter and morphology of CTC spheroid” value in data set [2] is “smaller than the mock group and became leakage in appearance”.
